Target: GABAA central benzodiazepine receptor
Assay: Benzodiazepine Binding Assay ((3H)-flunitrazepam, rat whole brain except cerebellum)
Conditions: read-out: BZ binding assay (IC50); 1 nM (3H)-flunitrazepam, 60 minutes at 25° C., pH 7.4; with or without 30 μM GABA

Structure (SMILES)	IC50 [nM]
O=c1c2c[nH]c3c(N4CCOCC4)cc(N4CCOCC4)cc3c-2nn1-c1ccccc1 [Compound 58a, 6,8-Bis(morpholin-4-yl)-2-phenyl-2,5-dihydro-pyrazolo[4,3-c]quinolin-3-one]	1 to 1000
CC(C)N1CCN(c2cc(N3CCN(C(C)C)CC3)c3[nH]cc4c(=O)n(-c5ccccc5)nc-4c3c2)CC1 [Compound 58b, 6,8-Bis(4-iso-propylpiperazin-1-yl)-2-phenyl-2,5-dihydro-pyrazolo[4,3-c]quinolin-3-one]	1 to 1000
